The text below walks through data of patent US20220226321A1, “INHIBITOR OF MNK FOR THE TREATMENT OF NEUROPATHIC PAIN” (Board of Regents, The University of Texas System, priority 2019, published 2022).

SMILES strings stand for the structures. Entries after “also recorded” stand apart in the source; their conditions may differ.

One data set has as its system DRG neurons. Nature of the data set: whole-cell patch recording of acutely dissociated DRG neurons. The class given is cell-based, mouse. On the procedure:
Acute dissociation of mouse DRG neurons. Thirty mice were deeply anesthetized with isoflurane and the bilateral C4-5, T3-5, and L4-5 ganglia were surgically exposed and removed. The ganglia were placed in a flask containing trypsin (6.25 μg/mL, Hyclone) and type IA collagenase (0.25 mg/mL, Sigma-Aldrich) in DMEM and shaken for 50 min in a heated (37° C.) bath. After the cells were washed and mechanically dispersed with a fire polished Pasteur pipette, they were plated on poly-L-lysine-coated glass sheets and held in culture dishes with DMEM (10% FBS) until use within 6 hours after plating.
Whole-cell patch recording of spontaneous and evoked action potential in acutely dissociated mice DRG neurons. A previously described protocol was used (Li et al., 2017) for current-clamp recording. The internal solution contained 135 mM K-gluconate, 5 mM KCl, 5 mM Mg-ATP, 0.5 mM Na2GTP, 5 mM HEPES, 2 mM MgCl2, 5 mM EGTA, and 0.5 mM CaCl2 adjusted to pH 7.4 with KOH and the bath ACSF solution. DRG neurons were held at 0 pA, and the action potential current threshold was evoked using a series of 300-ms depolarizing current injections in 10-pA steps from −50 pA. The current that induced the first action potential that was defined as 1× rheobase. Only neurons with a resting membrane potential of at least −40 mV, stable baseline recordings, and evoked spikes that overshot 0 mV were used for further experiments and analysis. The DRG neurons were then held at 0 pA to record spontaneous action potential for 5 min. The different times rheobase injections for 500 ms was applied to induce action potential spike-burst responses. Series resistance (Rs) was compensated to above 70% for the recorded DRG neurons. All recordings were made at room temperature.

The next data set relates to DRG. Nature of the data set: Western blot (immunoblot) of DRG tissue after paclitaxel or eFT508 in vivo. Details: species or system mouse. The settings on record: Veh=100. For orientation: A western blot detects proteins with antibodies after separation by electrophoresis.
In the next data set the test system is eIF4E phosphorylation. The data set can be described thus: Western blot of eIF4E phosphorylation in mPFC, DRG and sciatic nerve. The data set is classed as in vivo, mouse. On the procedure:
Western blotting. […] The mPFC and DRGs were rapidly microdissected under a dissecting microscope and then flash frozen on dry ice. The mPFC was similarly collected from a separate group of WT male and female sham and SNI mice at 21 days post injury (the same time point as all rule-shifting experiments). Frozen tissues were homogenized with a pestle in lysis buffer (50 mM Tris, pH 7.4, 150 mM NaCl, 1 mM EDTA, pH 8.0, and 1% Triton X-100) containing protease and phosphatase inhibitors (Sigma-Aldrich), and then sonicated briefly. Samples were centrifuged at 14,000 rpm for 15 min at 4° C. 10 μg of protein was loaded into each well and separated by a 10%-12% SDS-PAGE gel. Proteins were transferred to a 0.45 μm PVDF membrane (Millipore) at 30 V overnight at 4° C. The next day, membranes were blocked with 5% non-fat dry milk (NFDM) in 1× Tris buffer solution containing Tween 20 (TTBS) for 1 h. Membranes were washed in 1×TTBS 3 times for 5 min each, then incubated with primary antibody overnight at 4° C. The primary antibodies used were: phospho-eIF4E (abcam ab76256; 1:1000), GAPDH (Cell Signaling Technology 2118S; 1:10000), total eIF4E (Cell Signaling Technology 9742S; 1:1000). […] Signals were detected using Immobilon Western Chemiluminescent HRP substrate (Millipore). […]

The test system of the next data set is infralimbic cortex. The data set can be described thus: axon initial segment (AIS) length in infralimbic cortex, immunohistochemistry. The class given is in vivo, mouse. The settings on record: 10 mg/kg p.o. daily for 7 days, male SNI mice. On the procedure:
Immunohistochemistry. All mice were perfused at 3 weeks post-surgery (the day after rule-shifting). Mice were deeply anesthetized with a mixture of ketamine (80 mg/kg) and xylazine (12 mg/kg; i.p.) and then transcardially perfused with 1× phosphate buffered saline (PBS; 4° C., pH 7.4) followed by 10% formalin in 0.1 M phosphate buffer (PB; 4° C., pH 7.4; 25 mL at a flow rate of […]) using a perfusion pump. Brains were dissected and transferred […] to a 30% sucrose in 0.1M PB. Once the brains sunk in sucrose, they were frozen in OCT over dry ice. Coronal sections (30 μm) were cut using a cryostat and a hole was placed in the left hemisphere to demarcate the left (ipsilateral) hemisphere. Free floating sections were then washed in 0.1M PB, and then incubated in blocking solution (10% Normal Goat Serum, 0.3% Triton-X 100 in 0.1M PB) for 1 hr at room temperature with gentle rocking/agitation. Sections were incubated in primary antibody (mouse-anti-AnkyrinG; UC Davis/NIH NeuroMab Facility, clone N106/36 RRID:AB_10673030; 2 μg/ml working concentration) diluted in blocking solution for 3 hrs at room temperature. […]
Image Analysis. […] For each image, 30 segments were analyzed in layers 2/3 and layers 5/6 of the ipsilateral and contralateral IL in CellSens (Olympus) using the polyline measure tool. […]

The mark [1] stands for this setting: DRGs in vivo after eFT508 treatment.
Setting [2] is: DRG, day 10 after induction of CIPN.

Turning to `Cc1cc(Nc2cc(N)ncn2)c(=O)n2c1C(=O)NC21CCCCC1` [eFT508, Tomivosertib], in the data set on DRG neurons, the “spontaneous activity in DRG neurons from paclitaxel treated mice” value is recorded as “strongly suppressed; also recorded: decreases spontaneous activity” and the “toxicity to DRG neurons in vitro” value is reported as “not toxic”. For the same compound, in the data set with DRG neurons (DRG neurons from paclitaxel treated mice), the “treatment time needed to reduce spontaneous activity in most neurons” value is recorded as “Approximately 20 min”. Further, in the data set on DRG (setting [1]), the “RagA, immunoblot” value worked out at 67±6.02; the “p4EBP1, immunoblot” value came out at 53.12±7.03; the “p-eIF4E, immunoblot” value is given as 10±2.43. In addition, the “crossing of the blood-brain-barrier” value in the data set on eIF4E phosphorylation (evidenced by western blot of eIF4E phosphorylation after drug-treatment) is listed as “crosses the blood-brain-barrier”. Besides, in the data set on eIF4E phosphorylation (naïve mice, 1 hour after 10 mg/kg i.p. or p.o.), the “eIF4E phosphorylation in mPFC, DRG and sciatic nerve” value is “rapid and profound decrease; also recorded: significantly decreased”. Further, in the data set on infralimbic cortex, the “SNI-induced changes in AIS length” value is “reversed”.

`CC(=O)O[C@H]1C(=O)[C@@]2(C)[C@H]([C@H](OC(=O)c3ccccc3)[C@]3(O)C[C@H](OC(=O)[C@H](O)[C@@H](NC(=O)c4ccccc4)c4ccccc4)C(C)=C1C3(C)C)[C@]1(OC(C)=O)CO[C@@H]1C[C@@H]2O` [paclitaxel]: the “spontaneous activity and nociceptor excitability” value in the data set on DRG neurons (cervical, thoracic and lumbar DRGs, day 10, paclitaxel 4 mg/kg every other day i.p.) is “caused spontaneous activity and increased nociceptor excitability”. Besides, the “Esyt1 protein, immunoblot” value with DRG (DRG after CIPN induction) is 230±18.30. Also, in the data set with DRG (DRG after paclitaxel treatment), the “mTOR, immunoblot” value is 195±25.27; the “p-4EBP1, immunoblot” value was 152±11.27; the “p-eIF4E, immunoblot” value was determined as 158±10.57; the “p-mTOR, immunoblot” value is recorded as 131±20.27. In the data set with DRG (DRG of eIF4E^S209A mice, paclitaxel vs vehicle), the “RagA protein level, immunoblot” value is on record as 75±8.46. For the same compound, in the data set on DRG (setting [2]), the “S6, immunoblot” value was determined as 133±24.54; the “p-Akt, immunoblot” value is 96.86±6.63; the “p-ERK1/2, immunoblot” value was determined as 107±14.94; the “p-S6, immunoblot” value is 134±24.47. In the data set with DRG (DRGs after CIPN), the “RagA protein level, immunoblot” value turned out to be 181±15.35.
